According to patent US20230382904A1, “SUBSTITUTED 4-([1,2,4]TRIAZOLO[1,5-a]PYRIDIN-6-YL)THIOPHENE-2-CARBOXAMIDE DERIVATIVES AND USE THEREOF” (The Johns Hopkins University, priority 2020, published 2023):

Experiments:
[1] = target: DLK (Homo sapiens (Human), UniProt Q12852); test: DLK biochemical assay (TR-FRET, MKK7 phosphorylation)
Summary of the method: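 TR-FRET ratio (665/Eu) reports MKK7 T275/S277 phosphorylation, lowered by DLK inhibition. Reaction: 60 μM ATP, 15 nM MKK7, 10 nM DLK catalytic domain, 90 min room temperature; detection incubation 16 h, 37° C. (1536-well) or 4° C. (384-well). Final concentrations.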

[2] = target: LZK (Homo sapiens (Human), UniProt O43283); test: LZK biochemical assay (TR-FRET, MKK7 phosphorylation)
LZK, sequence (O43283 168-409): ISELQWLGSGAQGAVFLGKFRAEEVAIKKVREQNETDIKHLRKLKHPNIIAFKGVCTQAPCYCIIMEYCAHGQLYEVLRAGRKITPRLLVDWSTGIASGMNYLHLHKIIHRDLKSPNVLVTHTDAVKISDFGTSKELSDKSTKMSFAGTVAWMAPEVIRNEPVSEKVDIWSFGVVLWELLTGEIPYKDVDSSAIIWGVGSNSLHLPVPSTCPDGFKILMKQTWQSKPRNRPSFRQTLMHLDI
Summary of the method: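 Readout is the HTRF ratio (XL665/Eu) from an EDTA-containing detection mix of 0.4 nM Eu-anti-phospho-MKK7 (T275/S277) and 20 nM XL665-anti-His, incubated 16 h at 32° C. This followed a 90 min RT reaction of 10 nM LZK catalytic domain, 15 nM MKK7 and 15 μM ATP at pH 7.5.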

DLK, sequence (Q12852 1-520): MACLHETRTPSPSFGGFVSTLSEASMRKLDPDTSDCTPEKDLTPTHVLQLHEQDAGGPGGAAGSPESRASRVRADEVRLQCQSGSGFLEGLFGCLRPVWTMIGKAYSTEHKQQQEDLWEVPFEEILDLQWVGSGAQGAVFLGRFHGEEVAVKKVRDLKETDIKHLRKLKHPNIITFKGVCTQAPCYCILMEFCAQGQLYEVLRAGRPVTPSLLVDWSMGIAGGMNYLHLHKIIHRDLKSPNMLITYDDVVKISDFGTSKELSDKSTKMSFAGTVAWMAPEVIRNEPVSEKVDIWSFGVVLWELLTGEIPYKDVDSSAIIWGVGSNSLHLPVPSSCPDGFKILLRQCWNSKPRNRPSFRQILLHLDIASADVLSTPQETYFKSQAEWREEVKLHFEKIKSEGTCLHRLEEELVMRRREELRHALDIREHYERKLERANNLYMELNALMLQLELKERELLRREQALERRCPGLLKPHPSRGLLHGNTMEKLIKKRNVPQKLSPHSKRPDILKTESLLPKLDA

CC(C)NC(=O)c1cc(-c2csc(C(=O)NCc3ccc(F)cc3)c2)cc2nc(N)nn12 [Compound 145]
IC50 [1]: 30.5 nM
IC50 [2]: 124 nM

CC(C)NC(=O)c1cc(-c2csc(C(=O)N[C@@H](C)c3ccccc3)c2)cc2nc(N)nn12 [Compound 146]
IC50 [1]: 12 nM
IC50 [2]: 71 nM

CC(C)NC(=O)c1cc(-c2csc(C(=O)N[C@@H](C)c3ccc(F)cc3)c2)cc2nc(N)nn12 [Compound 147]
IC50 [1]: 21 nM
IC50 [2]: 100 nM

COc1cccc(CNC(=O)c2cc(-c3cc(C(=O)NC(C)C)n4nc(N)nc4c3)cs2)c1 [Compound 148]
IC50 [1]: 64 nM
IC50 [2]: 230 nM

CC(C)NC(=O)c1cc(-c2csc(C(=O)NCc3ccccc3)c2)cc2nc(N)nn12 [Compound 149]
IC50 [1]: 28 nM
IC50 [2]: 110 nM

CC(C)NC(=O)c1cc(-c2csc(C(=O)NC3CCCCC3)c2)cc2nc(N)nn12 [Compound 150]
IC50 [1]: 46 nM
IC50 [2]: 490 nM

CC(C)NC(=O)c1cc(-c2csc(C(=O)NCc3nc4ccccc4o3)c2)cc2nc(N)nn12 [Compound 151]
IC50 [1]: 36 nM
IC50 [2]: 100 nM

CC[C@H](NC(=O)c1cc(-c2cc(C(=O)NC(C)C)n3nc(N)nc3c2)cs1)c1ccccc1 [Compound 152]
IC50 [1]: 4.15 nM
IC50 [2]: 57 nM

CC(C)NC(=O)c1cc(-c2csc(C(=O)N[C@H](C)c3ccc(F)cc3)c2)cc2nc(N)nn12 [Compound 153]
IC50 [1]: 32 nM
IC50 [2]: 280 nM

CC[C@H](NC(=O)c1cc(-c2cc(C(=O)NC(C)C)n3nc(N)nc3c2)cs1)c1ccc(F)cc1 [Compound 154]
IC50 [1]: 4.9 nM
IC50 [2]: 89 nM

CC[C@H](NC(=O)c1cc(-c2cc(C(=O)N[C@@H](C)CC)n3nc(N)nc3c2)cs1)c1ccc(F)cc1 [Compound 156]
IC50 [1]: 7.5 nM
IC50 [2]: 79 nM

CCNC(=O)c1cc(-c2csc(C(=O)NCc3ccc(F)cc3)c2)cc2nc(N)nn12 [Compound 157]
IC50 [1]: 180 nM
IC50 [2]: 870 nM

CCNC(=O)c1cc(-c2csc(C(=O)N[C@@H](C)c3ccc(F)cc3)c2)cc2nc(N)nn12 [Compound 158]
IC50 [1]: 33 nM
IC50 [2]: 560 nM

CC[C@H](C)NC(=O)c1cc(-c2csc(C(=O)N[C@@H](COC)c3ccc(F)cc3)c2)cc2nc(N)nn12 [Compound 159]
IC50 [1]: 2.9 nM
IC50 [2]: 16 nM

CC[C@H](C)NC(=O)c1cc(-c2csc(C(=O)N[C@@H](C)c3ccc(F)cc3)c2)cc2nc(N)nn12 [Compound 160]
IC50 [1]: 6.3 nM
IC50 [2]: 52 nM

CC[C@H](C)NC(=O)c1cc(-c2csc(C(=O)NCc3ccc(F)cc3)c2)cc2nc(N)nn12 [Compound 161]
IC50 [1]: 21 nM
IC50 [2]: 43 nM

CC[C@H](NC(=O)c1cc(-c2cc(C(=O)N[C@H]3CCOC3)n3nc(N)nc3c2)cs1)c1ccc(F)cc1 [Compound 162]
IC50 [1]: 3.5 nM
IC50 [2]: 77 nM

Nc1nc2ccc(-c3csc(C(=O)NCc4ccccc4)c3)cn2n1 [Compound 168]
IC50 [1]: 380 nM
IC50 [2]: 4600 nM

Nc1nc2ccc(-c3csc(C(=O)NC4CCCCC4)c3)cn2n1 [Compound 169]
IC50 [1]: 1100 nM
IC50 [2]: > 30000 nM

Nc1nc2ccc(-c3csc(C(=O)NC4CCCC4)c3)cn2n1 [Compound 170]
IC50 [1]: 520 nM
IC50 [2]: > 30000 nM

Nc1nc2ccc(-c3csc(C(=O)NC4CCC4)c3)cn2n1 [Compound 171]
IC50 [1]: 970 nM
IC50 [2]: > 30000 nM

Nc1nc2ccc(-c3csc(C(=O)NC4CC4)c3)cn2n1 [Compound 172]
IC50 [1]: 2600 nM
IC50 [2]: > 30000 nM

CC(C)NC(=O)c1cc(-c2ccc3nc(N)nn3c2)cs1 [Compound 173]
IC50 [1]: 2150 nM
IC50 [2]: 19000 nM

Nc1nc2ccc(-c3csc(C(=O)NC4CCCCCC4)c3)cn2n1 [Compound 174]
IC50 [1]: 440 nM
IC50 [2]: > 30000 nM

CN(C(=O)c1cc(-c2ccc3nc(N)nn3c2)cs1)C1CCCCC1 [Compound 175]
IC50 [1]: 9550 nM
IC50 [2]: > 30000 nM
